Test results reported in patent US9724351B2, “Compounds for the treatment of paramoxyvirus viral infections” (priority 2012, dated 2017).

Columns and labels:
[1] = test system: Respiratory Syncytial Virus (RSV) long strain (ATCC#VR-26); assay: RSV Antiviral Assay (CPE reduction assay); format: cell-based; conditions: human respiratory syncytial virus, 120 h; HEp-2 cells infected with RSV long strain, 5 days, CCK-8 readout; bins (Table 2: less than 1 μM; Table 3: equal to or higher than 1 μM and less than 50 μM); read-out: 50% effective concentration (EC50)
In short: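 Cytopathic-effect protection measured after 5 days at 37 °C, 5% CO2 via CCK-8 dehydrogenase readout at 450 nm (630 nm reference), EC50 regressed from mean O.D. Host HEp-2 cells received RSV long strain at 100 TCID50/well; compound 9-point ⅓ series starting 100 μM or 1 μM, 1% DMSO, duplicate wells.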

[2] = Cytotoxicity Determination; format: cell-based; conditions: human, HEp-2 cells, without addition of virus, CCK-8 readout, bins (Table 4: greater than 100 μM; Table 5: equal to or less than 100 μM and greater than 10 μM), read-out: 50% cytotoxicity concentration (CC50)
In short: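 CC50 was derived from CCK-8 optical density after a 3-4 h reagent incubation. Before that, cells without virus had been treated for 5 days at 37 °C, 5% CO2 with compound at seven ½-step final concentrations from 100 μM, in duplicate wells.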

| Structure (SMILES) | EC50 [1] [µM] | CC50 at 5 days [2] [µM] |
| --- | --- | --- |
| COc1ccc(C(=O)NCC(=O)N/N=C/c2csc3cc(F)ccc23)cc1OC [Compound 400-17] | 1 to 50 | 10 to 100 |
| COc1ccc(C(=O)NCC(=O)N/N=C2\CCOc3ccccc32)cc1OC [Compound 452] | 1 to 50 | > 100 |
| COc1ccc(C(=O)NCC(=O)N/N=C/c2cccc3ccccc23)cc1OC [Compound 402] | 1 to 50 | 10 to 100 |
| COc1ccc(C(=O)NCC(=O)c2cn(C)cc(-c3csc4c(F)cccc34)c2=O)cc1OC [Compound 1338] | 1 to 50 | 10 to 100 |
| COc1cc(C(=O)NCC(=O)c2cccc(-c3csc4c(F)cccc34)n2)ccc1OC1CCOCC1 [Compound 1224] | 1 to 50 | > 100 |
| CCOc1ccc(C(=O)NCC(=O)N/N=C(\C)c2csc3ccccc23)cc1OCC [Compound 457] | < 1 | 10 to 100 |
| COc1ccc(C(=O)NCC(=O)N/N=C/c2csc3c(Cl)cccc23)cc1OC [Compound 400-12] | 1 to 50 | 10 to 100 |
| CCOc1ccc(C(=O)NCC(=O)N/N=C/c2csc3ccccc23)cc1OCC [Compound 231] | 1 to 50 | 10 to 100 |
| CCc1cc(C(=O)CNC(=O)c2ccc(OCCO)c(OC)c2)nc(-c2c[nH]c3c(F)cccc23)c1 [Compound 2112] | < 1 | > 100 |
| CCOc1ccc(C(=O)NCC(=O)Nc2nc3cc(Cl)ccc3n2CCOC)cc1OC [Compound 911] | 1 to 50 | 10 to 100 |
| C/C(=N\NC(=O)CNC(=O)c1ccc(N2CCCC2)cc1)c1csc2ccccc12 [Compound 468] | 1 to 50 | > 100 |
| COc1cc(C(=O)NCC(=O)c2ccc(OC)c(-c3ccccc3)n2)ccc1OCCO [Compound 1613] | < 1 | > 100 |
| COc1cc(C(=O)NCC(=O)N/N=C/c2csc3c(F)cccc23)ccc1OCCO [Compound 604] | < 1 | > 100 |
| COc1cc(C(=O)NCC(=O)c2ccc(OC)c(-c3ccc(F)c(C(F)F)c3)n2)ccc1OCCO [Compound 1327] | < 1 | > 100 |
| COc1ccc(C(=O)NCC(=O)c2c[nH]cc(-c3csc4c(F)cccc34)c2=O)cc1OC [Compound 1337] | 1 to 50 | > 100 |
| COc1ccc(C(=O)NCC(=O)c2ccc(OC)c(-c3ccc4ccccc4c3)n2)cc1OC [Compound 1517] | 1 to 50 | > 100 |
| COc1ccc(C(=O)NCC(=O)c2cn(C)c(-c3csc4c(F)cccc34)n2)cc1OC [Compound 1228] | 1 to 50 | 10 to 100 |
| COc1cc(C(=O)NC(C)C(=O)c2ccc(OC)c(-c3ccc(F)c(Cl)c3)n2)ccc1OCCO (stereo not shown) [Compound 1839] | < 1 | 10 to 100 |
| COc1cc(C(=O)NCC(=O)c2ccc(OC)c(-c3ccc(Cl)c(Cl)c3)n2)ccc1OCCF [Compound 2627] | < 1 | > 100 |
| COc1ccc(C(=O)NCC(=O)N/N=C(\CCCC(C)C)c2csc3ccccc23)cc1OC [Compound 489] | 1 to 50 | 10 to 100 |

| Structure (SMILES) | EC50 [1] [µM] | CC50 at 5 days [2] [µM] |
| --- | --- | --- |
| COc1ccc(C(=O)NCC(=O)N/N=C(/CC2CC2)c2csc3ccccc23)cc1OC [Compound 400-5] | 1 to 50 | > 100 |
| COc1cc(C(=O)CNC(=O)c2ccc(OCCN)c(OC)c2)nc(-c2csc3c(F)cccc23)c1 [Compound 1214] | < 1 | 10 to 100 |
| CCSc1ccc(C(=O)NCC(=O)N/N=C/c2csc3ccccc23)cc1 [Compound 238] | < 1 | 10 to 100 |
| COc1cc(C(=O)N[C@@H](CO)C(=O)c2ccc(OC)c(-c3csc4c(F)cccc34)n2)ccc1OCCO [Compound 1830] | < 1 | > 100 |
| CCOc1ccc(C(=O)NCC(=O)N/N=C(\CC2CCCCC2)c2csc3ccccc23)cc1OC [Compound 460] | < 1 | > 100 |
| COc1ccc(C(=O)NCC(=O)c2ccc(OC)c(-c3c(C)sc4cccnc34)n2)cc1OC [Compound 1502] | 1 to 50 | > 100 |
| COc1ccc(C(=O)NCC(=O)c2ccc3c(n2)-c2c(sc4c(F)cccc24)CO3)cc1OC [Compound 2701] | 1 to 50 | 10 to 100 |
| CCN(CC)c1cc(C(=O)NCC(=O)N/N=C(\C)c2csc3ccccc23)cs1 [Compound 511] | 1 to 50 | 10 to 100 |
| CCCn1cc(-c2csc3c(F)cccc23)nc1C(=O)CNC(=O)c1ccc(OC)c(OC)c1 [Compound 1355] | 1 to 50 | 10 to 100 |
| CCOc1ccc(C(=O)NCC(=O)N/N=C(\C)c2csc3ccccc23)cc1N(CC)CC [Compound 505] | 1 to 50 | 10 to 100 |
| CCOc1cc(C(=O)NCC(=O)N/N=C(\C)c2csc3ccccc23)ccc1N(CC)CC [Compound 509] | 1 to 50 | 10 to 100 |
| COc1ccc(C(=O)NCC(=O)N/N=C(\CCc2ccccc2)c2csc3ccccc23)cc1OC [Compound 495] | 1 to 50 | 10 to 100 |
| COCC/C(=N/NC(=O)CNC(=O)c1ccc(OC2COC2)c(OC)c1)c1csc2c(F)cccc12 [Compound 514B] | < 1 | > 100 |
| COCC/C(=N\NC(=O)CNC(=O)c1ccc(OC)c(OC)c1)c1csc2c(F)cccc12 [Compound 400-15] | < 1 | > 100 |
| COc1cc(C(=O)N[C@@H](C)C(=O)c2ccc(OC)c(-c3ccc(F)c(C(F)(F)F)c3)n2)ccc1OCCO [Compound 1812] | < 1 | 10 to 100 |
| COc1ccc(C(=O)NCC(=O)c2ccc(O)c(-c3csc4c(F)cccc34)n2)cc1OC [Compound 1335] | < 1 | 10 to 100 |
| CCCCC/C(=N\NC(=O)CNC(=O)c1ccc(OC)c(OC)c1)c1csc2ccccc12 [Compound 448A] | 1 to 50 | 10 to 100 |
| COc1cc(C(=O)NCC(=O)c2ccc(OC)c(-c3c[s+]([O-])c4c(F)cccc34)n2)ccc1OCCO (stereo not shown) [Compound 3302] | < 1 | 10 to 100 |
| COc1ccc(C(=O)NCC(=O)N/N=C2\CCc3sc4ccccc4c32)cc1OC [Compound 418] | 1 to 50 | 10 to 100 |
| COc1ccc(C(=O)NCC(=O)N/N=C(/C)c2c(OC)sc3ccccc23)cc1OC [Compound 400-14] | 1 to 50 | > 100 |

| Structure (SMILES) | EC50 [1] [µM] | CC50 at 5 days [2] [µM] |
| --- | --- | --- |
| COc1cc(C(=O)NCC(=O)c2ccc(OC)c(-c3ccc(F)c(O)c3)n2)ccc1OCCO [Compound 1328] | < 1 | > 100 |
| COc1ccc(C(=O)NCC(=O)c2ccc(OC)c(-c3ccc4cn(C)nc4c3)n2)cc1OC [Compound 1538] | 1 to 50 | > 100 |
| COc1cc(C(=O)NCC(=O)c2ccc(OC)c(-c3ccc(Cl)cc3)n2)ccc1OCCO [Compound 1607] | < 1 | 10 to 100 |
| COc1ccc(C(=O)NCC(=O)N/N=C(\C#N)c2ccccc2)cc1OC [Compound 454] | 1 to 50 | > 100 |
| COc1cc(C(=O)NCC(=O)c2ccc(OC)c(-c3ccc(F)c(F)c3)n2)ccc1OCCO [Compound 1618] | < 1 | > 100 |
| COCC/C(=N\NC(=O)CNC(=O)c1ccc(OC)c(OC)c1)c1csc2ccccc12 [Compound 493] | < 1 | > 100 |
| CCCC/C(=N\NC(=O)CNC(=O)c1ccc(OC(C)C)c(OC)c1)c1csc2ccccc12 [Compound 476] | < 1 | > 100 |
| COc1cc(C(=O)NCC(=O)c2cccc(-c3csc4c(F)cccc34)n2)ccc1O[C@H]1CC[C@@H](O)CC1 [Compound 1225] | 1 to 50 | > 100 |
| COc1cc(C(=O)NCC(=O)c2ccc(OC)c(-c3ccc(S(C)(=O)=O)cc3)n2)ccc1OCCO [Compound 1604] | 1 to 50 | > 100 |
| CCN(/N=C/c1csc2c(F)cccc12)C(=O)CNC(=O)c1ccc(OCCO)c(OC)c1 [Compound 2301] | < 1 | > 100 |
| COc1ccc(C(=O)NCC(=O)c2csc(-c3csc4c(F)cccc34)n2)cc1OC [Compound 1210] | 1 to 50 | > 100 |
| COc1cc(C(=O)NCC(=O)c2cc(C)cc(-c3csc4c(F)cccc34)n2)ccc1OCCO [Compound 1217] | < 1 | > 100 |
| COc1cc(C(=O)NCC(=O)c2cc(CO)cc(-c3ccc(F)c(Cl)c3)n2)ccc1OCC1CC1 [Compound 3800] | < 1 | 10 to 100 |
| COc1cc(C(=O)N[C@@H](CCO)C(=O)c2ccc(OC)c(-c3csc4c(F)cccc34)n2)ccc1OCCO [Compound 1803] | < 1 | 10 to 100 |
| COc1ccc(C(=O)NCC(=O)c2ccc(OC)c(-c3ccccc3F)n2)cc1OC [Compound 1528] | 1 to 50 | > 100 |
| COc1ccc(C(=O)NCC(=O)N/N=C(\C)c2c(OC)sc3ccccc23)cc1OC [Compound 400-19] | 1 to 50 | 10 to 100 |
| COc1ccc(C(=O)NCC(=O)c2ccnc(-c3csc4c(F)cccc34)n2)cc1OC [Compound 840] | 1 to 50 | > 100 |
| COc1ccc(C(=O)NCC(=O)c2cc(C(C)(C)C)cc(-c3csc4c(F)cccc34)n2)cc1OC [Compound 1252] | < 1 | > 100 |
| COc1cc(C(=O)NCC(=O)c2ccc(OC)c(-c3ccc(F)c(Br)c3)n2)ccc1OCCO [Compound 1622] | < 1 | > 100 |
